Source: patent US20060275303A1, “Modulating angiogenesis using LL-37/HCAP-18” (priority 2003, published 2006)
“Also recorded” adds a separate entry of the source. Where no end group is shown, it is not given here. [ ]: non-standard residue; d: D form.

Key:
HUVECs [1] = assay: Inhibition of the LL-37/hCAP-18-induced proliferative response of endothelial cells; assay type: cell-based, human; settings: for effect of the inhibitor on LL-37/hCAP-18-induced endothelial proliferation: HUVECs preincubated with the inhibitor (pertussis toxin 10 ng/ml); for effect of the inhibitor on baseline cell proliferation: HUVECs, without LL-37/hCAP-18
Protocol: (§1) Endothelial cells from human umbilical veins (HUVEC) were isolated as described before^8. 10^4 cells were seeded on six well plastic dishes in serum free medium. Different concentrations of LL-37 were added to the culture medium. VEGF (5 ng/ml, 165 amino acid variant, Sigma Chemicals, Munich, Germany) was used as positive control. After 72 h the cells were detached from the support and counted. Experiments were repeated ten times using synthetic LL-37/hCAP-18 (37 C-terminal amino acids) and the hexapeptide WKYMVm, wherein “m” denotes the D-form of the amino acid methionine, from two different sources (IPF Pharmaceuticals, Hannover, Germany and Institute for Biochemistry, Humboldt-University of Berlin, Germany). As control peptide we used the peptide L-14 […] to have any interactions with FPRL1 from the same source (Humboldt-University). Human serum (10%, donor with ABO blood group O) was applied under the same conditions to analyze any impact on induction of proliferation by LL-37. For inhibition experiments we applied inhibitors of G-protein coupled receptors (pertussis toxin, 10 ng/ml), PI-3K (wortmannin), and PKC (GF 109203X). For Matrigel assays HUVECs were seeded on Matrigel support (Beckton Dickinson, Franklin Lakes, N.J.) and cultivated in serum free medium in the absence or presence of 0.5 μg/ml LL-37. After 18 h, the cultures were inspected for the formation of rings and cords. Experiments were repeated three times.
As a next step we analyzed which mechanisms might be involved in the angiogenic activity of LL-37/hCAP-18. We applied inhibitors of G-protein coupled receptors (pertussis toxin), PI-3K (wortmannin), and PKC (GF 109203X) and monitored cell proliferation as outcome parameter.

HUVECs [2] = assay: In vitro proliferation assay with HUVECs; assay type: cell-based, human
Protocol: as §1
We measured the ability of LL-37/hCAP-18 to accelerate proliferation of HUVECs in a proliferation assay. […] HUVECs were seeded on six well plastic dishes and cultivated in serum free medium. Different concentrations of LL-37/hCAP-18 and control peptides were added to the culture medium. Figures on the left hand side indicate the numbers of cells per μl of volume after 72 h. VEGF was used as positive control. In vitro proliferation was not inhibited by human serum. A significance level of P<0.05 is labeled with **.b. […] HUVECs were seeded on Matrigel support and cultivated in serum free medium in the absence (c) or presence (d) of 0.5 μg/ml LL-37/hCAP-18. After 18 h, the cultures were inspected for the formation of rings and cords. Representative figures are shown.

HUVECs [3] = assay: In vitro Matrigel assay (formation of rings and cords); assay type: cell-based, human; settings: HUVECs on Matrigel, serum free medium, 0.5 μg/ml, 18 h
Protocol: Endothelial cells from human umbilical veins (HUVEC) were isolated as described before^8. 10^4 cells were seeded on six well plastic dishes in serum free medium. Different concentrations of LL-37 were added to the culture medium. VEGF (5 ng/ml, 165 amino acid variant, Sigma Chemicals, Munich, Germany) was used as positive control. After 72 h the cells were detached from the support and counted. Experiments were repeated ten times using synthetic LL-37/hCAP-18 (37 C-terminal amino acids) and the hexapeptide WKYMVm, wherein “m” denotes the D-form of the amino acid methionine, from two different sources (IPF Pharmaceuticals, Hannover, Germany and Institute for Biochemistry, Humboldt-University of Berlin, Germany). As control peptide we used the peptide L-14 […] to have any interactions with FPRL1 from the same source (Humboldt-University). Human serum (10%, donor with ABO blood group O) was applied under the same conditions to analyze any impact on induction of proliferation by LL-37. For inhibition experiments we applied inhibitors of G-protein coupled receptors (pertussis toxin, 10 ng/ml), PI-3K (wortmannin), and PKC (GF 109203X). […]
We measured the ability of LL-37/hCAP-18 to accelerate proliferation of HUVECs in a proliferation assay. […]

ischemic hindlimb = assay: Rabbit hind limb model of arteriogenesis and angiogenesis; assay type: in vivo; settings: 200 μg intramuscular 7 days after femoral artery excision, vs PBS control, day 35
Protocol: To analyze angiogenic effects of LL-37 in vivo we used a rabbit model of angiogenesis. German Giant Rabbits (6.5±0.4 kg, n=8) were subjected to ligation of the external iliac artery (proximally), the popliteal and saphenous arteries (distally) and all femoral artery branches, followed by excision of the entire femoral artery. Seven days after surgery, synthetic LL-37 (200 μg in 1 ml PBS) or PBS alone as control were injected into the muscles of the medial thigh and the calf (5 injections sites, n=4/group). Seven (baseline) and thirty-five days after surgery, angiography was performed by automated injection of contrast agent into the abdominal aorta (4 ml at 2 ml/sec; cine-angiography 25 frames/sec; Siemens, Munich, Germany). Collateral growth was defined as the increase in angiographic collateral score between baseline and 35 days after initial surgery (assessed by counting the contrast-opacified collateral vessels in the medial thigh using a grid overlay)^12. Blood flow was assessed by cine-frame-count of the passage time of contrast agent between the common iliac artery and the anterior tibial artery (proximal and distal landmarks), adapting the TIMI frame-count method to peripheral blood flow^13. Blood flow measurements correlate well with results obtained with doppler flow-wire in the internal iliac artery (Jomed, Haan, Germany). Tissue specimens were sampled from the right gastrocnemius and fibularis muscles for histology (alkaline phosphatase staining using an indoxyl-tetrazolium method), capillary density was assessed as the ratio of capillaries to muscle fibers (4 fields, 200× magnitude).
To assess the effect of LL-37/hCAP-18 on both angiogenesis and the induction of collateral circulation under pathological conditions, we applied the substance in a rabbit hind limb model. In this model angiogenesis and collateral vessel growth (arteriogenesis) are induced by excision of the femoral artery. Seven days after surgical excision of the femoral artery, baseline measurements were performed and LL-37/hCAP-18 or buffer as control were injected into the ischemic hindlimb.

[4] = serum free medium, cell count after 72 h

## CN(C)CCCn1cc(C2=C(c3c[nH]c4ccccc34)C(=O)NC2=O)c2ccccc21 [GF 109203X]
HUVECs [1]
  effect of the inhibitor on LL-37/hCAP-18-induced endothelial proliferation: inhibition of the proliferative response; also recorded: inhibited activities of LL-37/hCAP-18 on endothelial proliferation
  effect of the inhibitor on baseline cell proliferation: no effect on the baseline measurements

## pertussis toxin
HUVECs [1]
  effect of the inhibitor on LL-37/hCAP-18-induced endothelial proliferation: inhibition of the proliferative response; also recorded: inhibited activities of LL-37/hCAP-18 on endothelial proliferation
  effect of the inhibitor on baseline cell proliferation: no effect on the baseline measurements

## LLGDFFRKSKEKIGKEFKRIVQRIKDFLRNLVPRTES [LL-37/hCAP-18, human cathelicidin antimicrobial peptide, the 37 C-terminal amino acid residues; synthetic peptide used in the tests]
HUVECs [2]; 10% human serum, 72 h
  proliferative activity in the presence of human serum: not inhibited; also recorded: not blocked
HUVECs [2]; [4]
  endothelial proliferation: dose-dependent increase of endothelial proliferation
  minimal concentration necessary to induce significant increase of proliferation: 50 ng/mL
HUVECs [3]
  formation of rings and cords of cells: significantly induces the formation of visible rings and cords of cells
Ischemic hindlimb
  blood flow (cine-frame-count of contrast agent passage time): significantly increased; also recorded: significantly augmented
  capillary density (capillaries to muscle fibers, calf muscles): higher capillary density
  collateral growth (increase in angiographic collateral score, medial thigh): significantly increased collateral growth; also recorded: significant increase

## WKYMVm (WKYMV[dM]) [synthetic hexapeptide, "m" denotes the D-form of methionine; specific agonist for FPRL1, reference compound]
HUVECs [2]; [4]
  endothelial proliferation: stimulated proliferation of endothelial cells
